This is an account of results in patent US9624214B2, “Amino-substituted imidazo[1,2-a]pyridinecarboxamides and their use” (BAYER PHARMA AKTIENGESELLSCHAFT, priority 2012, dated 2017).

Counter-ions that a name gives are not always drawn.

For this assay, the target named is T1, recombinant guanylate cyclase reporter cell line (Rattus norvegicus, UniProt P19686+P20595).
T1 construct: expressed in transfected cells
T1 sequence (P20595 1-619): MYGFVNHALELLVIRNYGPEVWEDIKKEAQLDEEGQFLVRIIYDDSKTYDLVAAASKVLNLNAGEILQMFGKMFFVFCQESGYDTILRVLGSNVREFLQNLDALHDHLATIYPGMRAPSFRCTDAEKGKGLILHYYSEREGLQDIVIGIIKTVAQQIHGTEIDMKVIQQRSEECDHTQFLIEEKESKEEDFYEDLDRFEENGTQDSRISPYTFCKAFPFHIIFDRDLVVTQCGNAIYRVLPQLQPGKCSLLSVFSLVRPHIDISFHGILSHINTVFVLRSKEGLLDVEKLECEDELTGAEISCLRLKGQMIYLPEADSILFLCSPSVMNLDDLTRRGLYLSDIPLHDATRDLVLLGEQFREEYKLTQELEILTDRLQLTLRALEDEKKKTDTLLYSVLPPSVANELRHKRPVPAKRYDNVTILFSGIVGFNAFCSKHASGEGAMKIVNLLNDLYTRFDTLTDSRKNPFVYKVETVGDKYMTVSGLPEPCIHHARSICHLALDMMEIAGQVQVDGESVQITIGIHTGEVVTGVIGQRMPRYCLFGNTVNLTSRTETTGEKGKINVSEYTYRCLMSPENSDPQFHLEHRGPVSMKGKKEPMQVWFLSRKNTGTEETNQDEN
T1 sequence (P19686 1-690): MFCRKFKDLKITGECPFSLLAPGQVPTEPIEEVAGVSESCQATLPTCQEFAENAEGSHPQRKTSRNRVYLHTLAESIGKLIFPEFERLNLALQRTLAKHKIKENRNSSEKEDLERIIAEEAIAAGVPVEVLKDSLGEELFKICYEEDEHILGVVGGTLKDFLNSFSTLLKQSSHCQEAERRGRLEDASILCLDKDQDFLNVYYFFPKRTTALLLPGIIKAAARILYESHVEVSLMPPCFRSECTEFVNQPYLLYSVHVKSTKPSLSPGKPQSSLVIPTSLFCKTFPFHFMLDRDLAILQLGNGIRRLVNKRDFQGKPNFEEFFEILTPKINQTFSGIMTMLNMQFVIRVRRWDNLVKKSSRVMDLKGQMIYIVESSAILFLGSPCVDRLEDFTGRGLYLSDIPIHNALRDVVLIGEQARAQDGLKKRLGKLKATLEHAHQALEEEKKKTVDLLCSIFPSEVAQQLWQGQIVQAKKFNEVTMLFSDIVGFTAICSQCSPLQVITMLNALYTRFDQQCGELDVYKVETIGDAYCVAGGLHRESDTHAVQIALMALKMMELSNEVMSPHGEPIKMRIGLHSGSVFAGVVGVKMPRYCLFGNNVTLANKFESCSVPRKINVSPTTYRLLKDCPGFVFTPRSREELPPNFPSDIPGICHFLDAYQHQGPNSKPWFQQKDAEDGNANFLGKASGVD
In words: B-2. Action on recombinant guanylate cyclase reporter cell line. Format: cell-based. As to conditions: MEC = minimal effective concentration; in some cases mean values from individual determinations. The method, boiled down: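 Compounds are tested on whole cells carrying a guanylate cyclase reporter construct. The lowest concentration giving an effect is recorded as the MEC.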

For the compound `Cc1nc2c(OCc3c(F)cccc3F)cccn2c1C(=O)NC(CN)COC(C)C` (single isomer, unassigned) [Example 93, ent-N-(1-Amino-3-isopropoxypropan-2-yl)-8-[(2,6-difluorobenzyl)oxy]-2-methylimidazo[1,2-a]-pyridine-3-carboxamide], the MEC stood at 0.30 µM.
As for `Cc1nc2c(OCc3c(F)cccc3F)cccn2c1C(=O)NCC(C)CN` (single isomer, unassigned) [Example 95, ent-N-(3-Amino-2-methylpropyl)-8-[(2,6-difluorobenzyl)oxy]-2-methylimidazo[1,2-a]pyridine-3-carboxamide Dihydrochloride], the MEC came out at 1.00 µM.
The figure for `Cc1nc2c(OCc3c(F)cccc3F)cccn2c1C(=O)NCC(C)CN` (single isomer, unassigned) [Example 96, ent-N-(3-Amino-2-methylpropyl)-8-[(2,6-difluorobenzyl)oxy]-2-methylimidazo[1,2-a]pyridine-3-carboxamide Dihydrochloride] is 1.00 µM; for `COCC(CN)NC(=O)c1c(C)nc2c(OCc3c(F)cccc3F)cccn12` (single isomer, unassigned) [Example 122, ent-N-(1-Amino-3-methoxypropan-2-yl)-8-[(2,6-difluorobenzyl)oxy]-2-methylimidazo[1,2-a]-pyridine-3-carboxamide Ditrifluoroacetate] it is 1.00 µM; for `COCC(CN)NC(=O)c1c(C)nc2c(OCc3c(F)cccc3F)cccn12` (single isomer, unassigned) [Example 123, ent-N-(1-Amino-3-methoxypropan-2-yl)-8-[(2,6-difluorobenzyl)oxy]-2-methylimidazo[1,2-a]-pyridine-3-carboxamide Ditrifluoroacetate] it is 3.00 µM.
The figure for `Cc1nc2c(OCc3c(F)cccc3F)cccn2c1C(=O)NCC(N)CC(F)(F)F` (single isomer, unassigned) [Example 126, ent-N-(2-Amino-4,4,4-trifluorobutyl)-8-[(2,6-difluorobenzyl)oxy]-2-methylimidazo[1,2-a]pyridine-3-carboxamide] is 0.30 µM.
The figure for `Cc1nc2c(OCc3c(F)cccc3F)cccn2c1C(=O)NCC(N)CC(F)(F)F` (single isomer, unassigned) [Example 127, ent-N-(2-Amino-4,4,4-trifluorobutyl)-8-[(2,6-difluorobenzyl)oxy]-2-methylimidazo[1,2-a]pyridine-3-carboxamide] is 1.00 µM; for `Cc1cc(OCc2c(F)cccc2F)c2nc(C)c(C(=O)NCC(N)CC(F)(F)F)n2c1` (single isomer, unassigned) [Example 128, ent-N-(2-Amino-4,4,4-trifluorobutyl)-8-[(2,6-difluorobenzyl)oxy]-2,6-dimethylimidazo[1,2-a]-pyridine-3-carboxamide] it is 0.10 µM.
On to `Cc1cc(OCc2c(F)cccc2F)c2nc(C)c(C(=O)NCC(N)CC(F)(F)F)n2c1` (single isomer, unassigned) [Example 129, ent-N-(2-Amino-4,4,4-trifluorobutyl)-8-[(2,6-difluorobenzyl)oxy]-2,6-dimethylimidazo[1,2-a]-pyridine-3-carboxamide], for which the MEC worked out at 0.10 µM.
The figure for `Cc1nc2c(OCc3c(F)cccc3F)cccn2c1C(=O)NC(C)[C@H](C)N` (single isomer, unassigned) [Example 174] is 0.30 µM; for `Cc1nc2c(OCc3c(F)cccc3F)cccn2c1C(=O)NC(C)[C@H](C)N` (single isomer, unassigned) [Example 175] it is 1.00 µM.
As for `Cc1nc2c(OCc3c(F)cccc3F)cccn2c1C(=O)NC(C)[C@@H](C)N` (single isomer, unassigned) [Example 176], the MEC was determined as 1.00 µM.
As to `Cc1nc2c(OCc3c(F)cccc3F)cccn2c1C(=O)NC(C)[C@@H](C)N` (single isomer, unassigned) [Example 177], the MEC was 1.00 µM.
On to `Cc1nc2c(OCC3CCCCC3)cccn2c1C(=O)NC(CN)c1ccc(F)c(F)c1` (single isomer, unassigned) [Example 178, ent-N-[2-Amino-1-(3,4-difluorophenyl)ethyl]-8-(cyclohexylmethoxy)-2-methylimidazo[1,2-a]-pyridine-3-carboxamide], for which the MEC came to 0.30 µM.
Turning to `Cc1nc2c(OCC3CCCCC3)cccn2c1C(=O)NC(CN)c1ccc(F)c(F)c1` (single isomer, unassigned) [Example 179, ent-N-[2-Amino-1-(3,4-difluorophenyl)ethyl]-8-(cyclohexylmethoxy)-2-methylimidazo[1,2-a]-pyridine-3-carboxamide], the MEC amounted to 1.00 µM.
As to `Cc1nc2c(OCc3c(F)cccc3F)cccn2c1C(=O)NC12CNCCC1C2` (single isomer, unassigned) [Example 184, ent-N-(3-Azabicyclo[4.1.0]hept-1-yl)-8-[(2,6-difluorobenzyl)oxy]-2-methylimidazo[1,2-a]pyridine-3-carboxamide], the MEC is 1.00 µM.
Consider `Cc1nc2c(OCc3c(F)cccc3F)cccn2c1C(=O)NC12CNCCC1C2` (single isomer, unassigned) [Example 185, ent-N-(3-Azabicyclo[4.1.0]hept-1-yl)-8-[(2,6-difluorobenzyl)oxy]-2-methylimidazo[1,2-a]pyridine-3-carboxamide], for which the MEC was determined as 1.00 µM.
Consider `Cc1nc2c(OCc3c(F)cccc3F)cc(Cl)cn2c1C(=O)NCC(N)CC(F)(F)F` (single isomer, unassigned) [Example 192, ent-N-(2-Amino-4,4,4-trifluorobutyl)-6-chloro-8-[(2,6-difluorobenzyl)oxy]-2-methylimidazo[1,2-a]pyridine-3-carboxamide], for which the MEC amounted to 0.30 µM.
The figure for `Cc1nc2c(OCc3c(F)cccc3F)cc(Cl)cn2c1C(=O)NCC(N)CC(F)(F)F` (single isomer, unassigned) [Example 193, ent-N-(2-Amino-4,4,4-trifluorobutyl)-6-chloro-8-[(2,6-difluorobenzyl)oxy]-2-methylimidazo[1,2-a]pyridine-3-carboxamide] is 1.00 µM.
With `CCC(C)(N)CNC(=O)c1c(C)nc2c(OCc3c(F)cccc3F)cc(Cl)cn12` (single isomer, unassigned) [Example 194, ent-N-(2-Amino-2-methylbutyl)-6-chloro-8-[(2,6-difluorobenzyl)oxy]-2-methylimidazo[1,2-a]-pyridine-3-carboxamide], the MEC came out at 0.10 µM.
On to `CCC(C)(N)CNC(=O)c1c(C)nc2c(OCc3c(F)cccc3F)cc(Cl)cn12` (single isomer, unassigned) [Example 195, ent-N-(2-Amino-2-methylbutyl)-6-chloro-8-[(2,6-difluorobenzyl)oxy]-2-methylimidazo[1,2-a]-pyridine-3-carboxamide], for which the MEC was 0.30 µM.
The figure for `COCC(C)(N)CNC(=O)c1c(C)nc2c(OCc3c(F)cccc3F)cc(Cl)cn12` (single isomer, unassigned) [Example 196, ent-N-(2-Amino-3-methoxy-2-methylpropyl)-6-chloro-8-[(2,6-difluorobenzyl)oxy]-2-methylimidazo[1,2-a]pyridine-3-carboxamide] is 1.00 µM.
Regarding `COCC(C)(N)CNC(=O)c1c(C)nc2c(OCc3c(F)cccc3F)cc(Cl)cn12` (single isomer, unassigned) [Example 197, ent-N-(2-Amino-3-methoxy-2-methylpropyl)-6-chloro-8-[(2,6-difluorobenzyl)oxy]-2-methylimidazo[1,2-a]pyridine-3-carboxamide], the MEC came to 1.00 µM.
Regarding `COCC(C)(N)CNC(=O)c1c(C)nc2c(OCc3c(F)cccc3F)cc(C)cn12` (single isomer, unassigned) [Example 198, ent-N-(2-Amino-3-methoxy-2-methylpropyl)-8-[(2,6-difluorobenzyl)oxy]-2,6-dimethylimidazo-[1,2-a]pyridine-3-carboxamide], the MEC is 0.30 µM.
